Legend:
[1] = test system: VEGF release from B16F10 melanoma cells; test: VEGF ELISA assay; assay type: cell-based, mouse; settings: B16F10, 24 hr, ELISA of supernatant, FIG. 4B
Description: (§1) Mouse melanoma cell line (B16F10) was obtained from American Type Culture Collection (ATCC, Manassas, Va.) and cultured in DMEM containing 10% FBS, penicillin (100 units/ml), streptomycin (100 μg/ml), and L-glutamine (2[…]mM). Cells were maintained in humidified air containing 5% CO2 at 37° C.
B16F10 cells were treated with various concentrations of Fmoc-10a or vehicle for 24 hr, and then the supernatant was collected to examine the amount of vascular endothelial growth factor (VEGF) protein. VEGF mouse ELISA Kit (Novex, Invitrogen) was used according to the manufacturer's instructions.

B16F10 cells = test: Experimental metastasis model; assay type: in vivo, C57BL/6 mice; settings: B16F10 tail vein; 1.5 or 4.5 mg/kg intraperitoneally every day, FIG. 4D
Description: B16F10 cells (2×10^6) were slowly injected into the lateral tail vein of C57BL/6 mice to initiate tumor metastasis. Fmoc-10a (1.5 or 4.5 mg/kg) was intraperitoneally administered to mice every day from 3 days before tumor cell injection to 21 days after tumor cell injection (the day sacrificed).

B16F10 melanoma cells = test: Matrigel invasion assay; assay type: cell-based, mouse; settings: B16F10, 16 h, FIG. 4A
Description: as §1
The upper side of the filters was coated with Matrigel (BD Biosciences, Bedford, Mass.) at a concentration of 125 […]μg/cm^2. B16F10 cells (5×10^4 cells/well) were seeded onto the upper chamber with serum-free medium, then incubated in the bottom chamber with culture medium containing 10% FBS in the absence or presence of Fmoc-10a. After 16 h of treatment, cells on the upper side of the filters were mechanically removed, and those migrated on the lower side were fixed with 4% formaldehyde, then stained with 0.5% crystal violet for 10 min. Finally, invaded cells were quantified by counting the number of stained cells in 10 random fields with the inverted phase contrast microscope and photographed.

[2] = test system: hyperoxia-induced retinal neovascularization; test: Oxygen-induced retinopathy (OIR) model; assay type: in vivo, BALB/c-nude mice; settings: retinal whole mounts, FIG. 5
Description: The mouse model of OIR has been widely used to induce retinal neovascularization in studies related to retinal ischaemic diseases, including AMD, and in studies evaluating the efficacy of antiangiogenic compounds. Briefly, BALB/c-nude mice at postnatal day (P7) are subjected to hyperoxia (75% oxygen) along with their nursing dam for 5 days (P12), and then to room air to produce retinal neovascularization. Neovascularization occurs upon return to normoxia and peaks at P17. All of the mice in the OR model were perfusion fixed via left ventricular puncture at the time of euthanasia, with 5 ml rhodamine-conjugated dextran. Then, angiography of retinal vasculature was performed and retinal whole mounts were prepared to score features of retinopathy.

late EPCs [3] = test: Capillary tube formation assay on Matrigel; assay type: cell-based, human; settings: 16 h treatment, FIG. 1E
Description: (§2) This investigation conforms with the principles outlined in the Declaration of Helsinki for use of human tissue. Ethical approval was granted by the Institutional Review Board of the Mackay Memorial Hospital, Taipei, Taiwan. Informed consent was obtained from healthy donors before the collection of peripheral blood (80 mL). The peripheral blood mononuclear cells (PBMCs) were fractionated from other blood components by centrifugation on Ficoll-Paque™ plus (GE Healthcare) according to the manufacturer's instructions. CD34-positive progenitor cells were obtained and cultured. In brief, the cells were isolated from PBMCs using CD34 MicroBead kit and MACSTM Cell Separation System (all from Miltenyi Biotec). CD34-positive EPCs were maintained in MV2 complete medium (PromoCell) consisting of endothelial basal medium, 20% fetal bovine serum, hEGF, VEGF, hFGF-B, IGF-1, ascorbic acid, and heparin. 1×10^6 cells/cm^2 were seeded on fibronectin-coated dish (BD Biosciences) and maintained in 37° C. incubator under a humidified 95% air and 5% CO2 atmosphere.
Matrigel (BD Biosciences, Bedford, Mass.), which was used to promote the differentiation of EPCs into a capillary tube-like structure, was added to 48-well plates. […] Tube formation was quantified by measuring the long axis of each tube in 3 random fields per well by using Image-Pro Plus software.

late EPCs [4] = test: Transwell cell migration assay; assay type: cell-based, human; settings: 16 h treatment, FIG. 1D
Description: as §2, with “1×10^6 cells/cm^2 were seeded on fibronectin-coated dish (BD Biosciences) and maintained in 37° C. incubator under a humidified 95% air and 5% CO2 atmosphere.” left out
EPCs (5×10^4 cells/well) were seeded onto the upper chamber with MV2 complete medium, then incubated in the bottom chamber with MV2 complete medium containing 2% FBS with the indicated concentrations of Fmoc-10. […] Cell migration was quantified by counting the number of stained cells in 10 random fields with the inverted phase contrast microscope and photographed.

[5] = test system: VEGF-induced vessels sprouting from aortic rings; test: Aortic ring sprouting assay (ex vivo); set-up: species or system Sprague-Dawley rats; settings: VEGF 20 ng/ml, day 8, FIG. 3A
Description: Aortas were harvested from 8- to 10-week-old Sprague-Dawley rats. Following a complete washing, the aortas were cut into 1 mm ring segments. The aortic rings were placed in the 48-well plates which were pre-coated with 130 μl Matrigel and polymerized at 37° C. The wells were subsequently overlaid with another 50 μl Matrigel for sealing. VEGF (20 ng/ml) with or without Fmoc-10a was then added to the well. The cultured medium was changed every 3 days. Sprouting endothelial cells were observed and photographed on day 8. The area of sprouting vessels was measured quantitatively by Image-Pro Plus software.

early EPCs [6] = test: Colony-forming assay (CFU-Hill); assay type: cell-based, human; settings: FIGS. 2A&2B
Description: Isolated PBMCs are resuspended in MV2 complete medium. After 2 days, the nonadherent cells were collected and replated onto a fibronectin-coated 24-well plate. Five days later, the number of colony-forming units (CFUs) od early EPCs per well was counted.

B16F10 melanoma = test: Subcutaneous xenograft model; assay type: in vivo, C57BL/6 mice; settings: daily intraperitoneal injection, FIG. 4C
Description: B16F10 cells (2×10^6) in a volume of 100 μL were injected subcutaneously into the right flank of the C57BL/6 mice. After 9 days, when tumors reached 2 mm in diameter, the mice were randomly given vehicle or the indicated doses of Fmoc-10a daily by intraperitoneal injection. Tumor size and body weight were measured every day. The tumor volume was calculated according to the following formula: V=(length×width^2/2). In accordance with the Animal Ethics Committee, the experiments should be stopped when an unbearable situation appeared in animals.

late EPCs [7] = test: Cell proliferation assay (MTT); assay type: cell-based, human; settings: 48 h treatment, FIG. 1B
Description: as §2
EPCs (5×10^3 cells/well) were seeded onto 96-well plates. After 24 h incubation, the culture medium was removed and cells were incubated with fresh MV2 complete medium containing 2% FBS for 48 h in the absence or presence of Fmoc-10a. […] Formazan crystal was lysed by dimethyl sulfoxide (DMSO) and absorbance was measured at 550 nm with ELISA-reader.

early EPCs [8] = test: Early EPC chemotaxis assay (Transwell); assay type: cell-based, human; settings: 4 hours, FIG. 2C
Description: The chemotactic motility of early EPCs was evaluated using a Transwell. The lower filter surface was coated with gelatin. Fmoc-10a in presence or absence of MV2 complete medium was placed in the lower wells. The chamber was incubated at 37° C. for 4 hours. Cells were fixed with cold methanol and stained with 0.5% crystal violet.

late EPCs [9] = test: Cytotoxicity assay (LDH release); assay type: cell-based, human; settings: 48 h, even at high concentration (30 μM), FIG. 1C
Description: as §2
EPCs were treated with MV2 complete medium containing 2% FBS for 48 h in the absence or presence of Fmoc-10a. The percentage of LDH release was calculated from the ratio of LDH activity in the medium to LDH activity in the cell lysate after Fmoc-10a treatment.

[10] = test system: VEGF-induced microvessel formation; test: Directed in vivo angiogenesis assay (DIVAA); set-up: species or system C57BL/6 mice; settings: VEGF-containing DIVAA tubes implanted in mice, 15 days, FIG. 3B
Description: Surgical silicone tubes were filled at 4° C. with Matrigel containing VEGF with or without Fmoc-10a. Then, the dorsal haunches of the anesthetized mice (C57BL/6 mice) were shaved and sterile prepped. A 5 mm cutaneous incision was made and a 10 mm deep subcutaneous pocket was created with a sterile hemostat. DIVAA tubes were incubated at 37° C. for 1 hour to allow gel formation and then implanted into the dorsal flank of mice. After 15 days, DIVAA tubes were taken and photographed. Neovessels were quantified by measuring the hemoglobin of the plug with the Drabkin method. All procedures involving animal experiment were approved by the Institutional Animal Care and Use Committee at Mackay Medical College.

In the case of `CC(C)[C@H](NC(=O)OCC1c2ccccc2-c2ccccc21)C(=O)N[C@@H](CO)Cc1ccccc1` [Fmoc-10a, (9H-fluoren-9-yl)methyl (S)-1-((R)-1-hydroxy-3-phenylpropan-2-ylamino)-3-methyl-1-oxobutan-2-ylcarbamate], the “production of VEGF in melanoma cells” value [1] is reported as “significantly inhibits”, the “lung metastasis of melanoma cancer (pulmonary colony number)” value (B16F10 cells) is reported as “substantially suppresses lung metastasis” and the “cell invasion of melanoma cells” value (B16F10 melanoma cells) is reported as “significantly inhibits cell invasion”. For the same compound, the “hyperoxia-induced pathological neovascularization in mice” value [2] was “significantly blocks hyperoxia-induced pathological neovascularization”, the “tube formation of late EPCs” value (late EPCs [3]) was “significantly inhibits” and the “cell migration of late EPCs” value (late EPCs [4]) was “significantly inhibits cell migration”. The “VEGF-induced vessels sprouting from aortic rings” value [5] was “dramatically abrogated VEGF-induced vessels sprouting”, the “CFU-Hill colonies of early EPCs” value (early EPCs [6]) was “significantly inhibits CFU-Hill colonies” and the “tumor growth of melanoma cells” value (B16F10 melanoma) was “potently blocks tumor growth of melanoma cells in a dose-dependent manner”. The “cell proliferation of late EPCs” value (late EPCs [7]) was “suppresses cell proliferation of late EPCs in a concentration-dependent manner”, the “chemotaxis of early EPCs” value (early EPCs [8]) was “markedly suppresses chemotaxis” and the “LDH release of late EPCs” value (late EPCs [9]) was “does not induce LDH release”. For the same compound, the “microvessel formation in the Matrigel plugs (hemoglobin content)” value [10] was “attenuated concentration-dependently microvessel formation”.
In the case of “Avastin: Avastin (10 μg) was used as positive control in the OIR model [reference compound]”, the “hyperoxia-induced pathological neovascularization in mice” value [2] is reported as “significantly blocks hyperoxia-induced pathological neovascularization”.

Reference: patent US9872882B2, “Aurantiamide dipeptide derivatives for treatment or prevention of angiogenesis-related diseases” (Mackay Medical College, priority 2015, dated 2018)
